For eight compounds, Decrease, IC50 and inhibition in vivo results are on record in ChEMBL document CHEMBL1132177, “PTP1B inhibition and antihyperglycemic activity in the ob/ob mouse model of novel 11-arylbenzo[b]naphtho[2,3-d]furans and 11-arylbenzo[b]naphtho[2,3-d]thiophenes” (J Med Chem, 1999).

The test system of test [1] is Mus musculus. The test is described as follows: The compound was tested in vivo(ob/ob mouse) for intestinal absorption against insulin, at a concentration of 100 mg/kg/day. In kind it is functional.
Test [2] relates to Mus musculus. The test is described as follows: The compound was tested in vivo(ob/ob mouse) for intestinal absorption against plasma glucose at a concentration of 100 mg/kg/day. Format: functional.
In test [3] the target is Receptor-type tyrosine-protein phosphatase beta (Homo sapiens, UniProt P23467). The test is described as follows: The compound was tested in vitro for the inhibitory activity against Protein-tyrosine phosphatase beta (SH-PTP1) (human PTPases.).
Receptor-type tyrosine-protein phosphatase beta, sequence (P23467 whole entry): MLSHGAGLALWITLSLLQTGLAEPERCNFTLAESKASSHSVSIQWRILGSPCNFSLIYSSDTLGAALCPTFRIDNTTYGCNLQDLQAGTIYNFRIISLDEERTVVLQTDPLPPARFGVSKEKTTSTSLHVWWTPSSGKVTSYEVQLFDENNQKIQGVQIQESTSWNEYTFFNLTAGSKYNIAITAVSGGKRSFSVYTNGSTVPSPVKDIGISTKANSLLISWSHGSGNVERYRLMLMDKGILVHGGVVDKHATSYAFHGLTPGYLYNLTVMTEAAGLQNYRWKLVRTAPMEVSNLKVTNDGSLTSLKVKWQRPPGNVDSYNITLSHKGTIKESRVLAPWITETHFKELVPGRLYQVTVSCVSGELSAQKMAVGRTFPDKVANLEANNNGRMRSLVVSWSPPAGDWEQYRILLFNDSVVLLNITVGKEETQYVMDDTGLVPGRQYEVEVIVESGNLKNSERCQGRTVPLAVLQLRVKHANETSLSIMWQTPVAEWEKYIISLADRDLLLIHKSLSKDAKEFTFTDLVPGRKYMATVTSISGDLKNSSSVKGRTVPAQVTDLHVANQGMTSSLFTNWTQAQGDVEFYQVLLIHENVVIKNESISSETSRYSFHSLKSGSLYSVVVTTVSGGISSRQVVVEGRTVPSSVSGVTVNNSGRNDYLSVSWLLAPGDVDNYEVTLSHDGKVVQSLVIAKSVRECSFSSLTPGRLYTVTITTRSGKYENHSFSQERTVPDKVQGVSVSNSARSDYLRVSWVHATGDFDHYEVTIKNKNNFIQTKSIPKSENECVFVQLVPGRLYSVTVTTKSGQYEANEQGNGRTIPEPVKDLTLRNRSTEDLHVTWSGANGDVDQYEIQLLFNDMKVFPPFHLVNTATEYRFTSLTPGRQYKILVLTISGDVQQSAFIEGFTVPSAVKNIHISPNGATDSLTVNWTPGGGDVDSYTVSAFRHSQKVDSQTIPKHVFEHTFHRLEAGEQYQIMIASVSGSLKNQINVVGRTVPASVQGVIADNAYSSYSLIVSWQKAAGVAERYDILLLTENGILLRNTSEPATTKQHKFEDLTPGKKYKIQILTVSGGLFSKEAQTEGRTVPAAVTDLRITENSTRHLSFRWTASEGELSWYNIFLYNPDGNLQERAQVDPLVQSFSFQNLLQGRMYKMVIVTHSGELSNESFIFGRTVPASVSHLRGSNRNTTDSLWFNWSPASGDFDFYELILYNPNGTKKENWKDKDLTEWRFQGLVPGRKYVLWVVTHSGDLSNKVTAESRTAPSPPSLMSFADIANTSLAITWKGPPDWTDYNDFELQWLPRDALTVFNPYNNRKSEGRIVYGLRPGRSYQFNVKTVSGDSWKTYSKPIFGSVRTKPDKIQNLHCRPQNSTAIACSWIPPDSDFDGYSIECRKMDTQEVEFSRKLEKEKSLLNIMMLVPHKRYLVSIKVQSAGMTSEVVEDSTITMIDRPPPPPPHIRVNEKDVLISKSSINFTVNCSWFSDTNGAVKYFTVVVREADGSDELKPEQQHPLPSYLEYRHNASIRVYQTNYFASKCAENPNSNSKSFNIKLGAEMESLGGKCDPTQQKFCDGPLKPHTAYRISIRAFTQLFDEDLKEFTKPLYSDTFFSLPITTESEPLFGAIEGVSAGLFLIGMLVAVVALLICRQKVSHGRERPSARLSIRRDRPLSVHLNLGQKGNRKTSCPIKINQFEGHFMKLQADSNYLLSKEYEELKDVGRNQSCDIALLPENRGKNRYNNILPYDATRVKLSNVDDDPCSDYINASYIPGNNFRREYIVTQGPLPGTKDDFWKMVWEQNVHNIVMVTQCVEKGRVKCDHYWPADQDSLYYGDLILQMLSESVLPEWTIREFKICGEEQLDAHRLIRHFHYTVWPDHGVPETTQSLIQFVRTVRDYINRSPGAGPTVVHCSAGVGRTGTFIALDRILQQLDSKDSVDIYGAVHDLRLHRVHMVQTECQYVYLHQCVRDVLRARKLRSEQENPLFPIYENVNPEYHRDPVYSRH
The target in test [4] is Tyrosine-protein phosphatase non-receptor type 6 (Homo sapiens, UniProt P29350). The test is described as follows: The compound was tested in vitro for the inhibitory activity against Protein-tyrosine phosphatase 1C (SH-PTP1) (human PTPases.).
Tyrosine-protein phosphatase non-receptor type 6, sequence (P29350 whole entry): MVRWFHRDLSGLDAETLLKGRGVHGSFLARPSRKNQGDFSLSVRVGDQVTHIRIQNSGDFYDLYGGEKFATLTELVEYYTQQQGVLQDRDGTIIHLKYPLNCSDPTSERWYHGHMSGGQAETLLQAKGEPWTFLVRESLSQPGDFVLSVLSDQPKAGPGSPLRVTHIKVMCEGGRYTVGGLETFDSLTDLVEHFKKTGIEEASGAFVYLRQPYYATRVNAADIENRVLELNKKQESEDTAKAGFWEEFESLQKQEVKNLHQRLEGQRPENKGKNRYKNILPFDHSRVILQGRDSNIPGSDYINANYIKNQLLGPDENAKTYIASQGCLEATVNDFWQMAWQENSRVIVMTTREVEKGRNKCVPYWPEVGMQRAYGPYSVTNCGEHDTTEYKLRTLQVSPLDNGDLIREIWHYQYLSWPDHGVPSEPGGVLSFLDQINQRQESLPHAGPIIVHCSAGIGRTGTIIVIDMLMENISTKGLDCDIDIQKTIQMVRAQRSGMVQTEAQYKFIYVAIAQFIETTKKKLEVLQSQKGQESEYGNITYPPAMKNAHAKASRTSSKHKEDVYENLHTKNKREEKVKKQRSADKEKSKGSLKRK
Test [5] has as its target Dual specificity protein phosphatase 3 (Homo sapiens, UniProt P51452). Briefly: The compound was tested in vitro for the inhibitory activity against Dual specificity protein phosphatase 3 (SH-PTP1) (human PTPases.).
Test [6] deals with T1, Receptor-type tyrosine-protein phosphatase C (Homo sapiens, UniProt P08575).
T1 sequence (P08575 whole entry): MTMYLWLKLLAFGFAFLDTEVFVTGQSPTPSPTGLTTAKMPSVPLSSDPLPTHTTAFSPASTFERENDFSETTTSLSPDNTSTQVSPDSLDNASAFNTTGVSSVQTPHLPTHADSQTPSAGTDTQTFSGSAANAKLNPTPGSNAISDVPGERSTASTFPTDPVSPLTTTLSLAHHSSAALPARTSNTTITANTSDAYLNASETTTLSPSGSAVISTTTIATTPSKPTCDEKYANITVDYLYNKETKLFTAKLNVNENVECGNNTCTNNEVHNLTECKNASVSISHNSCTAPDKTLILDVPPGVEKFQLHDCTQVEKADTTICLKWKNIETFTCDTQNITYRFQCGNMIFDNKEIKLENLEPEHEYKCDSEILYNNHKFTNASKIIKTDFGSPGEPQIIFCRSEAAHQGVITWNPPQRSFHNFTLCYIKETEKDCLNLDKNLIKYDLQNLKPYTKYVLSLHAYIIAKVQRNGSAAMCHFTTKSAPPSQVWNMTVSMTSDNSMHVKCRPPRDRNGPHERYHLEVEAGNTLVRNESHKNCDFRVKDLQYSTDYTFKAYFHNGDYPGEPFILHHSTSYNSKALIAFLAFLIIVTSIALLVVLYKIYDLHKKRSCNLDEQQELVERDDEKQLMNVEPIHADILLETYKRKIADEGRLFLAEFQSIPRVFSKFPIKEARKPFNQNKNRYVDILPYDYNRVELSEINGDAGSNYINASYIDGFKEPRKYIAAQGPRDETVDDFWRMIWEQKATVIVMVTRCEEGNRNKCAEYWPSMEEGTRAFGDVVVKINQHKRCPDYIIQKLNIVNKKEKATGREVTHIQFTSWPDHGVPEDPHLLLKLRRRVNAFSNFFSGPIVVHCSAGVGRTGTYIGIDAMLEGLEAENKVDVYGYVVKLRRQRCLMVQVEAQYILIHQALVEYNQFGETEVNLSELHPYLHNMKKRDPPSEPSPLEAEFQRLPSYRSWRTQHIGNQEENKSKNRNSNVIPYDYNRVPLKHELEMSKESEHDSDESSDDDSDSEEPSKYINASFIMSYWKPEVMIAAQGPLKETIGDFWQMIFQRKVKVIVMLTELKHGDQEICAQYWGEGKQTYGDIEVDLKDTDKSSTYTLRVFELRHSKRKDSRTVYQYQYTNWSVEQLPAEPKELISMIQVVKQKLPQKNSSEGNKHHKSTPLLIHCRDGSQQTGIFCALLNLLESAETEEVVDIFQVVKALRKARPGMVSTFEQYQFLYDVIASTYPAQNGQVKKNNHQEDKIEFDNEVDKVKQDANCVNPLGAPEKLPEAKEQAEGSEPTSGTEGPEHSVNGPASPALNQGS
The test is described as follows: The compound was tested in vitro for the inhibitory activity against CD45 antigen (human PTPases.).

Test [7] can be described thus: The compound was tested in vitro for the inhibitory activity against human HePTP360 (Hematopoietic protein tyrosine phosphatase).
The target in test [8] is T2, Tyrosine-protein phosphatase non-receptor type 1 (Homo sapiens, UniProt P18031).
T2 sequence (P18031 whole entry): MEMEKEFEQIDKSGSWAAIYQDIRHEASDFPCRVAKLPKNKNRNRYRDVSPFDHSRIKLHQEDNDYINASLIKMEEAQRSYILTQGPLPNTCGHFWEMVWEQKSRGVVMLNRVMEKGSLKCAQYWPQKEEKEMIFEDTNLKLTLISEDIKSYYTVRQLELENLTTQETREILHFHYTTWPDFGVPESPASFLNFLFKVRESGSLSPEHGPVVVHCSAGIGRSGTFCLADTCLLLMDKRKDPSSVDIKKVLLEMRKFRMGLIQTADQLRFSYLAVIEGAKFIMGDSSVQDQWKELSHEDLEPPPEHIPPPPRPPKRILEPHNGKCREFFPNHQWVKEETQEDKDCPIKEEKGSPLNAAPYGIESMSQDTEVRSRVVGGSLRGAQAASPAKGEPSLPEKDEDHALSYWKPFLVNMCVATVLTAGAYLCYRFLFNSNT
The test is described as follows: The compound was tested in vitro for the inhibitory activity against Protein-tyrosine phosphatase 1B (human PTPases.).

Test [9] deals with T3, Tyrosine-protein phosphatase non-receptor type 12 (Homo sapiens, UniProt Q05209).
T3 sequence (Q05209 whole entry): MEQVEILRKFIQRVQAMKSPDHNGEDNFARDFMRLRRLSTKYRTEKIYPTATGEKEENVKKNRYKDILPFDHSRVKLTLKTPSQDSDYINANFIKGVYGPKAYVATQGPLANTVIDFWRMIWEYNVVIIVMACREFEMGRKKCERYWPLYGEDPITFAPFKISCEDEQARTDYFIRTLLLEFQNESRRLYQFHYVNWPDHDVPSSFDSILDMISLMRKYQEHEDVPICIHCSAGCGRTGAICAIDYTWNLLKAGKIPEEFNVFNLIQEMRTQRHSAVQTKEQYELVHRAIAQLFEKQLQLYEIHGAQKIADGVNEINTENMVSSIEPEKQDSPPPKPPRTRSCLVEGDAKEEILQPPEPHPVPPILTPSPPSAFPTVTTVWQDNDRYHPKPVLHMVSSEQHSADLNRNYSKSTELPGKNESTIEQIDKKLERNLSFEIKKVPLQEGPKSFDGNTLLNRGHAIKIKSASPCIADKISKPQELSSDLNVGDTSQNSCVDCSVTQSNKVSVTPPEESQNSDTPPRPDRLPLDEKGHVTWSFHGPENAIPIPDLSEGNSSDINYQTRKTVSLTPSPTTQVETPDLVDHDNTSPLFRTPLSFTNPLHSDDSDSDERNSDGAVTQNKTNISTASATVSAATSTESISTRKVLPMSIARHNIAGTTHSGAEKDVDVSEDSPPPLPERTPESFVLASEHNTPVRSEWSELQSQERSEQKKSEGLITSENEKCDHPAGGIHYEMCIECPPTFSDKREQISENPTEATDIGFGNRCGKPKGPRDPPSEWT
The test is described as follows: The compound was tested in vitro for the inhibitory activity against Protein tyrosine phosphatase PEST (SH-PTP1) (human PTPases.).

Test [10] deals with Receptor-type tyrosine-protein phosphatase alpha (Homo sapiens, UniProt P18433). Briefly: The compound was tested in vitro for the inhibitory activity against Protein-tyrosine phosphatase 1 alpha (LRP) (human PTPases.).
Receptor-type tyrosine-protein phosphatase alpha, sequence (P18433 whole entry): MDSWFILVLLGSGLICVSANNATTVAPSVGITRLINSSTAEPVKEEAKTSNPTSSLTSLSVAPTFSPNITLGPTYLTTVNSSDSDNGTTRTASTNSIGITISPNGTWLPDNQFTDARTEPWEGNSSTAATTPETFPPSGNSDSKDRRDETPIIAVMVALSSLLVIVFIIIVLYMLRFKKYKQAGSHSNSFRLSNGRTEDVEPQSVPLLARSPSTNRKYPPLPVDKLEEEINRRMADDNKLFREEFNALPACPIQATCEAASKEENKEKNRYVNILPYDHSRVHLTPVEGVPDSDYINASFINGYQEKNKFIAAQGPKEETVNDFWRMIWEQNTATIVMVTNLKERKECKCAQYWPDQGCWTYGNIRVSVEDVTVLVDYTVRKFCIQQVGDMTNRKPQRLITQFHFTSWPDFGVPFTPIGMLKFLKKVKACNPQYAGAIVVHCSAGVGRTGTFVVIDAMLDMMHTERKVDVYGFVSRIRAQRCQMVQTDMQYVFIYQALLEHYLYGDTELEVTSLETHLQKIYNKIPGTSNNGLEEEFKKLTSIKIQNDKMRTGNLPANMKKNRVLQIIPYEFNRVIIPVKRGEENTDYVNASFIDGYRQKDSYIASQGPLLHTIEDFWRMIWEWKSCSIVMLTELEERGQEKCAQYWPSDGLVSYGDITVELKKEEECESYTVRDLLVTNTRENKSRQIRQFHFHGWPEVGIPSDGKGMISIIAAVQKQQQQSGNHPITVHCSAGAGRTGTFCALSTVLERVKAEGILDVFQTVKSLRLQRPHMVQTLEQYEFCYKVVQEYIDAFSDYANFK
Test [11] has as its system Mus musculus. Briefly: The compound was tested in vivo(ob/ob mouse) for intestinal absorption against plasma glucose at a concentration of 50 mg/kg/day. Format: functional.
Test [12] relates to Mus musculus. Briefly: The compound was tested in vivo(ob/ob mouse) for intestinal absorption against plasma glucose at a concentration of 10 mg/kg/day. In kind it is functional.
The subject of test [13] is Mus musculus. Briefly: The compound was tested in vivo(ob/ob mouse) for intestinal absorption against insulin, at a concentration of 10 mg/kg/day. Format: functional.
Test [14] has as its system Mus musculus. Briefly: The compound was tested in vivo(ob/ob mouse) for intestinal absorption against plasma glucose at a concentration of 25 mg/kg/day. In kind it is functional.
Test [15] concerns Mus musculus. Briefly: The compound was tested in vivo(ob/ob mouse) for intestinal absorption against insulin, at a concentration of 50 mg/kg/day. In kind it is functional.
For test [16], the system named is Mus musculus. The test is described as follows: The compound was tested in vivo(ob/ob mouse) for intestinal absorption against plasma glucose at a concentration of 75 mg/kg/day. In kind it is functional.
For test [17], the system named is Mus musculus. The test is described as follows: The compound was tested in vivo(ob/ob mouse) for intestinal absorption against insulin, at a concentration of 75 mg/kg/day. Format: functional.
In test [18] the test system is Mus musculus. The test is described as follows: The compound was tested in vivo(ob/ob mouse) for intestinal absorption against insulin, at a concentration of 25 mg/kg/day. In kind it is functional.
Test [19] has as its system Mus musculus. Briefly: The compound was tested in vivo(ob/ob mouse) for intestinal absorption against insulin, at a concentration of 90 mg/kg/day. Format: functional.
Test [20] relates to Mus musculus. The test is described as follows: The compound was tested in vivo(ob/ob mouse) for intestinal absorption against plasma glucose at a concentration of 90 mg/kg/day. In kind it is functional.
Test [21] relates to Mus musculus. Briefly: The compound was tested in vivo(ob/ob mouse) for intestinal absorption against plasma glucose at a concentration of 5 mg/kg/day. Format: functional.
Test [22] addresses T2, Tyrosine-protein phosphatase non-receptor type 1. Briefly: The compound was tested in vitro for the inhibitory activity against hPTP1B (human PTPases.).
Test [23] relates to Mus musculus. Briefly: The compound was tested in vivo(ob/ob mouse) for intestinal absorption against plasma glucose at a concentration of 1 mg/kg/day. (i.p.). In kind it is functional. Conditions: route intraperitoneal.
Test [24] deals with Mus musculus. Briefly: The compound was tested in vivo(ob/ob mouse) for intestinal absorption against insulin, at a concentration of 5 mg/kg/day. In kind it is functional.
The target in test [25] is T2, Tyrosine-protein phosphatase non-receptor type 1. Briefly: The compound was tested for inhibitory activity against recombinant Protein-tyrosine phosphatase 1B (human).
Test [26] has as its system Mus musculus. The test is described as follows: The compound was tested in vivo(ob/ob mouse) for intestinal absorption against plasma glucose at a concentration of 200 mg/kg/day. Format: functional.
In test [27] the test system is Mus musculus. The test is described as follows: The compound was tested in vivo(ob/ob mouse) for intestinal absorption against insulin, at a concentration of 200 mg/kg/day. Format: functional.

Molecules are shown by their SMILES.

A word on the IC50: it is the point on the concentration scale where inhibition reaches its midpoint. What is called inhibition in vivo is the percentage by which the read-out fell short of the control. The low end stands for little suppression, the high end for strong suppression.

Dual specificity protein phosphatase 3, sequence (P51452 whole entry): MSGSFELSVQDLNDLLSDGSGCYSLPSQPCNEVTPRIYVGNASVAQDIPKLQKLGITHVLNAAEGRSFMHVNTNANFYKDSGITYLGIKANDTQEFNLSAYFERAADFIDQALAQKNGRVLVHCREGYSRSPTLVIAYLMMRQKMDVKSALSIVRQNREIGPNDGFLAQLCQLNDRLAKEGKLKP

Regarding `O=C(O)COc1c(Br)cc(-c2c3ccccc3c(Br)c3sc4ccccc4c23)cc1Br`, the Decrease in the test on Mus musculus [1] is reported as 61%; in the test with Mus musculus [2] it was 23%. The IC50 in test [3] was 600 nM; in test [4], 5000 nM; in test [5], 7900 nM; in [6] it was 9100 nM; in [7], 2700 nM; in test [8], 390 nM. Moreover, the IC50 in test [9] amounted to 2300 nM; in test [10], 17000 nM.

As to `Oc1c(Br)cc(-c2c3ccccc3c(Br)c3sc4ccccc4c23)cc1Br`, the Decrease with Mus musculus [1] and in the test on Mus musculus [2] was below 15% in each case.

Consider `O=C(O)[C@@H](Cc1ccccc1)Oc1c(Br)cc(-c2c3ccccc3c(Br)c3sc4ccccc4c23)cc1Br`, for which the Decrease in the test with Mus musculus [11] is given as 35%; with Mus musculus [12], 26%; with Mus musculus [13], below 15%; in the test on Mus musculus [14] it was 26%; in the test on Mus musculus [15], 71%; with Mus musculus [16] it was 50%. Further, the Decrease with Mus musculus [17] is recorded as 85%; with Mus musculus [18], 72%.

For `O=P(O)(O)COc1c(Br)cc(-c2c3ccccc3c(Br)c3sc4ccccc4c23)cc1Br`, the Decrease in the test with Mus musculus [19] and in the test with Mus musculus [20] was below 15% each time.

For the compound `O=C(O)[C@@H](Cc1ccccc1)Oc1c(Br)cc(-c2c3ccccc3c(Br)c3oc4ccccc4c23)cc1Br`, the Decrease in the test on Mus musculus [21] is below 15%; with Mus musculus [12] it was 29%; in the test with Mus musculus [13], 69%; with Mus musculus [23], 38%; with Mus musculus [24], 56%; in the test with Mus musculus [14], 42%. The Decrease with Mus musculus [18] is 86%. For the same compound, the IC50 in [22] came to 80 nM; in [3] it was 500 nM; in test [4], 9000 nM; in test [5] it was 11000 nM; in test [6], 6300 nM; in test [7], 2100 nM. For the same compound, the results for the IC50 in test [9] and in test [10] were 2200 nM and 13000 nM, respectively.

Take `O=C(O)[C@@H](CCN1C(=O)c2ccccc2C1=O)Oc1c(Br)cc(-c2c3ccccc3c(Br)c3sc4ccccc4c23)cc1Br`: the inhibition in vivo at 100 mg/kg/day in the test on Mus musculus [1] and with Mus musculus [2] was below 15% throughout. The IC50 in test [25] is 11 nM.

Take `CC1(COc2ccc(CC3SC(=O)NC3=O)cc2)CCCCC1` (centres undefined) [CIGLITAZONE]: the inhibition in vivo at 100 mg/kg/day in the test with Mus musculus [1] was 39%; in the test on Mus musculus [2] it was 43%.

In the case of `Cc1c(C)c2c(c(C)c1O)CCC(C)(COc1ccc(CC3SC(=O)NC3=O)cc1)O2` (centres undefined) [TROGLITAZONE], the inhibition in vivo at 200 mg/kg/day in the test on Mus musculus [26] is 34%; in the test with Mus musculus [27], below 15%.
